The source of these data is patent US20140154251A1, “ANTI C-MET ANTIBODY AND USES THEREOF” (Samsung Electronics Co., Ltd., priority 2011, published 2014).

In test [1] the test system is MHCC97H (human liver cancer cell line). The test can be described thus: MHCC97H liver cancer xenograft model. To be noted: 30 mg/kg p.o., q.d. x 4 weeks. The format is in vivo, BALB/C nude mouse. On the procedure: The antitumor activity of huAbF46-H4-A1(IgG2 Fc) was evaluated in a BALB/C nude mouse MHCC97H (human liver cancer cell line) xenograft model (referring to Example 16.2). Approximately 3 million MHCC97H cells in 100 μL of serum-free media were injected via s.c. to each of the 140 mice under anesthesia by 1-2% isoflurane. Ten days after subcutaneous inoculation with MHCC97H tumor cells, dosing commenced in the following treatment groups: 0 (PBS vehicle), 0.2, 1, 5 or 10 mg/kg huAbF46-H4-A1 (IgG2 Fc) i.v., q.w.×4 weeks; 30 mg/kg sorafenib p.o., q.d.×4 weeks (positive control). Each group consisted of 15 mice. Tumor volumes and body weights were measured two to three times a week for total study period about 4 weeks. The tumor volume (V) was calculated as follows: V (mm^3)={long axis length (mm)×(short axis length (mm))^2}/2.

Another test concerns Akt. As to the kind of experiment: Akt phosphorylation in Caki-1 cells (phospho-AKT1 Ser473 ELISA). Conditions: 5 ug/ml, 30 minutes (FIG. 8B). The format is cell-based. On the procedure: To compare agonism of the 4 types of antibodies having improved affinities, as prepared in Example 5, Caki-1 cells (Korean Cell Line Bank) were used to confirm the degree of Akt phosphorylation. Mouse IgG was used as a negative control, and antibody 5D5 (a known agonist) was used as a positive control.
2×10^5 cells/ml of Caki-1 cells were introduced to a 96-well plate, and after 24 hours, each of 5 ug/ml of the antibodies was treated in serum free medium for 30 minutes. Lysis of the cells treated with the antibodies was performed and the degree of Akt phosphorylation was measured using a PathScan phospho-AKT1 (Ser473) chemiluminescent Sandwich ELISA kit (Cell Signaling, cat. no #7134S).
To compare agonism of the 3 types of antibodies having improved affinities, as prepared in Example 11, Caki-1 cells (Korean Cell Line Bank) were used to confirm the degree of Akt phosphorylation. Mouse IgG was used as a negative control, and a 5D5 antibody (a known agonist) was used as a positive control.
2×10^5 cells/ml of Caki-1 cells were introduced to a 96-well plate, and after 24 hours, each of 5 ug/ml of the antibodies was treated in serum free medium for 30 minutes. Lysis of the cells treated with antibodies was performed and a degree of Akt phosphorylation inhibition was measured using a PathScan phospho-AKT1 (Ser473) a chemiluminescent Sandwich ELISA kit (Cell Signaling, cat. no #7134S).
(In an ELISA, binding on a coated surface is turned into a signal by an enzyme label.)

In the case of `CNC(=O)c1cc(Oc2ccc(NC(=O)Nc3ccc(Cl)c(C(F)(F)F)c3)cc2)ccn1` [sorafenib, reference compound], the “tumor growth (in words)” value in test [1] is reported as “significant inhibition”.

B1: L3-11Y: heavy chain of huAbF46-H4-A1 (IgG2 Fc) with light chain SEQ ID NO: 73 (serine 27e replaced with tryptophan) (antibody)
heavy: EVQLVESGGGLVQPGGSLRLSCAASGFTFTDYYMSWVRQAPGKGLEWLGFIRNKANGYTTEYSASVKGRFTISRDNSKNTLYLQMNSLRAEDTAVYYCARDNWFAYWGQGTLVTVSSASTKGPSVFPLAPCSRSTSESTAALGCLVKDYFPEPVTVSWNSGALTSGVHTFPAVLQSSGLYSLSSVVTVPSSNFGTQTYTCNVDHKPSNTKVDKTVERKCCVECPPCPAPPVAGPSVFLFPPKPKDTLMISRTPEVTCVVVDVSHEDPEVQFNWYVDGVEVHNAKTKPREEQFNSTFRVVSVLTVVHQDWLNGKEYKCKVSNKGLPAPIEKTISKTKGQPREPQVYTLPPSREEMTKNQVSLTCLVKGFYPSDIAVEWESNGQPENNYKTTPPMLDSDGSFFLYSKLTVDKSRWQQGNVFSCSVMHEALHNHYTQKSLSLSPGK
light: DIQMTQSPSSLSASVGDRVTITCKSSQSLLAWGNQNNYLAWYQQKPGKAPKMLIIWASTRVSGVPSRFSGSGSGTDFTLTISSLQPEDFATYYCQQSYSRPYTFGQGTKVEIKRTVAAPSVFIFPPSDEQLKSGTASVVCLLNNFYPREAKVQWKVDNALQSGNSQESVTEQDSKDSTYSLSSTLTLSKADYEKHKVYACEVTHQGLSSPVTKSFNRGEC
As for B1, in the test on Akt, the “activity of Akt phosphorylation inhibition compared to huAbF46-H4-A1(IgG2 Fc)” value is recorded as “equal or higher activity of Akt phosphorylation inhibition”.
